Assay results as given in PubChem BioAssay AID1671294.

Target: Homeodomain-interacting protein kinase 3 (Homo sapiens) (UniProt Q9H422)
Test: inhibition of human HIPK3 (YAK1) activity – biochemical, Z'-LYTE, FRET, protease-coupled, direct format, dose response (AID 1671294)
Settings: recombinant HIPK3

Homeodomain-interacting protein kinase 3 (Homo sapiens), sequence (Q9H422 whole entry, looked up): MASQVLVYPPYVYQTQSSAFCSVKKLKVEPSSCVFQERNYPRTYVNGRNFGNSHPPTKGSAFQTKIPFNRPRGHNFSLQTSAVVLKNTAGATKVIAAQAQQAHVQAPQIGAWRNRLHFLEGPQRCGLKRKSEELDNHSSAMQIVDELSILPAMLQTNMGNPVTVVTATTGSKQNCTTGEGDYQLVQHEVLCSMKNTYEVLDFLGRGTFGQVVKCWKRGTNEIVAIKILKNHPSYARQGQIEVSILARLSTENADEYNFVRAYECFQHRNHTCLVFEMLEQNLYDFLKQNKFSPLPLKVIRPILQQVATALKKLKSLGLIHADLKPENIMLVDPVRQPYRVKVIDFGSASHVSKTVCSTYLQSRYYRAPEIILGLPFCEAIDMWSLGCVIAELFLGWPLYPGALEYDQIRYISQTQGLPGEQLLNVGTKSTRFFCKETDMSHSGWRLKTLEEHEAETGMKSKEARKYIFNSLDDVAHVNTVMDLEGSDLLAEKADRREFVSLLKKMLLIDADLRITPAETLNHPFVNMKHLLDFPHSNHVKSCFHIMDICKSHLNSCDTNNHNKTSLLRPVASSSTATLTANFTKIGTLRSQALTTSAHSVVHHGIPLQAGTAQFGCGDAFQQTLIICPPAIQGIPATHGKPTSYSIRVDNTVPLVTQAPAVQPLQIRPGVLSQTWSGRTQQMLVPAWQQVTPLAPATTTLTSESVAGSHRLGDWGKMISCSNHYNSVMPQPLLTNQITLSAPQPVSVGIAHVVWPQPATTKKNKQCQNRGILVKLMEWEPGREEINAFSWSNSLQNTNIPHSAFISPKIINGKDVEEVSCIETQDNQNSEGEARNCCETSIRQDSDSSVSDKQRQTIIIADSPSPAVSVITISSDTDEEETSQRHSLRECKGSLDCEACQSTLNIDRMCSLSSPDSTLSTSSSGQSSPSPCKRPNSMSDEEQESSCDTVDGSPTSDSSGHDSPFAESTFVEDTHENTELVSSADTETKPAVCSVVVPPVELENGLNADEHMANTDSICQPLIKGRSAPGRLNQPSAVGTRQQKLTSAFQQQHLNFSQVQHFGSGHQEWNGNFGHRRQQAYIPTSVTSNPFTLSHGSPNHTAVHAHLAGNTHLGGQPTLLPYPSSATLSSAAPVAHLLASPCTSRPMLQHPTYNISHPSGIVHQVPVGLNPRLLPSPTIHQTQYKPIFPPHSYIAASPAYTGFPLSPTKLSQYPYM

Brc1c(Br)c(Br)c2n[nH]nc2c1Br gave an IC50 of 5.1 µM.
